Measured values taken from patent US10934310B2, “Inhibitors of Bruton's tyrosine kinase and method of their use” (JANSSEN PHARMACEUTICA NV, priority 2015, dated 2021).

Biological target: unphosphorylated-BTK kinase domain (UP-BTK), GST-tagged human BTK (389-659aa) (Homo sapiens (Human), UniProt Q06187)
Assay: BTK Kinase Lanthascreen Binding Assay
Settings: for BTK_I_binding pIC50: pIC50 = negative log of the IC50 in molar; for IC50: read-out: BTK_I_binding pIC50 (converted)
Description: BTK Kinase Lanthascreen Binding Assay:
A BTK kinase lanthascreen binding assay monitors compound binding to unphosphorylated-BTK kinase domain (UP-BTK), by competing with a fluorescent labeled tracer. […] Data were analyzed using Xlfit™ version 5.3 from ID Business Solutions (Guildford), Microsoft Excel add-in. pIC50 refers to the negative log of the IC50 in molar.

[1] = compound, 50 nM Tracer 236, 2 nM anti-GST antibody, 60 minutes
[2] = Lanthascreen binding, 60 minutes incubation

Chain of unphosphorylated-BTK kinase domain (UP-BTK), GST-tagged human BTK (389-659aa) (Q06187 389-659): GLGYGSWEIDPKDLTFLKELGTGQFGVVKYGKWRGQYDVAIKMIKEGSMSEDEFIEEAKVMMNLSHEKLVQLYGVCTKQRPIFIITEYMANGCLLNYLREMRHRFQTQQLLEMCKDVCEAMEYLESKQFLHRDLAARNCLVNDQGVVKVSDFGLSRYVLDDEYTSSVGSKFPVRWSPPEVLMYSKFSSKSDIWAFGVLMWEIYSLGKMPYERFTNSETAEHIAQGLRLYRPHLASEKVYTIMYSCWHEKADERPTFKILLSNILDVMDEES

Compound | BTK_I_binding pIC50 [1] | further results
C=CC(=O)N[C@H]1CCCC[C@H]1NC(=O)c1sc2nccc3c2c1NC(=O)N3c1ccc(OC2CCC2)nc1C (single isomer, unassigned) [Example 204, N-((1R,2S)-2-Acrylamidocyclohexyl)-5-(*S)-(6-cyclobutoxy-2-methylpyridin-3-yl)-4-oxo-4,5-dihydro-3H-1-thia-3,5,8-triazaacenaphthylene-2-carboxamide] | 8.03 | –
C=CC(=O)N[C@@H]1CCC[C@H]1NC(=O)c1sc2nccc3c2c1NC(=O)N3c1cnc(Oc2ccccc2)nc1C (single isomer, unassigned) [Example 219, N-((1R,2R)-2-Acrylamidocyclopentyl)-5-(*S)-(4-methyl-2-phenoxypyrimidin-5-yl)-4-oxo-4,5-dihydro-3H-1-thia-3,5,8-triazaacenaphthylene-2-carboxamide] | 7.94 | –
Cc1cc(Oc2ccccc2)ccc1N1C(=O)Nc2c(C(=O)N[C@@H]3CCCC[C@H]3N)sc3nccc1c23 (single isomer, unassigned) [Example 440, N-((1R,2R)-2-aminocyclohexyl)-5-(*S)-(2-methyl-4-phenoxyphenyl)-4-oxo-4,5-dihydro-3H-1-thia-3,5,8-triazaacenaphthylene-2-carboxamide] | – | BTK_I_binding pIC50 [2]: 7.07
Cc1nc(Oc2ccccc2)ccc1N1C(=O)Nc2c(C(=O)N[C@H]3CC[C@H](N)C3)sc3nccc1c23 (single isomer, unassigned) [Example 415, N-((1S,3S)-3-Aminocyclopentyl)-5-(*S)-(2-methyl-6-phenoxypyridin-3-yl)-4-oxo-4,5-dihydro-3H-1-thia-3,5,8-triazaacenaphthylene-2-carboxamide] | – | IC50: > 1000 nM
C=CC(=O)N[C@@H]1CC[C@@H](NC(=O)c2sc3nccc4c3c2NC(=O)N4c2ccnc(-c3ccccc3)c2)C1 [Example 212, N-((1R,3R)-3-Acrylamidocyclopentyl)-4-oxo-5-(2-phenylpyridin-4-yl)-4,5-dihydro-3H-1-thia-3,5,8-triazaacenaphthylene-2-carboxamide] | 7.49 | –
Cc1cc(Oc2ccccc2)ccc1N1C(=O)Nc2c(C(=O)N[C@H]3CC[C@H](O)CC3)sc3nccc1c23 [Example 15, N-((1R,4R)-4-Hydroxycyclohexyl)-5-(2-methyl-4-phenoxyphenyl)-4-oxo-4,5-dihydro-3H-1-thia-3,5,8-triazaacenaphthylene-2-carboxamide] | 7.21 | –
C=CC(=O)NC1CCC(NC(=O)c2sc3nccc4c3c2NC(=O)N4c2ccc(Oc3ccccc3)cn2)C1 (racemic) [Example 214, N-((1RS,3RS)-3-Acrylamidocyclopentyl)-4-oxo-5-(5-phenoxypyridin-2-yl)-4,5-dihydro-3H-1-thia-3,5,8-triazaacenaphthylene-2-carboxamide] | – | IC50: 14.1 nM
N[C@H]1CCCC[C@H]1NC(=O)c1sc2nccc3c2c1NC(=O)N3c1ccc(Oc2ccccc2)nc1 [Example 257, N-((1R,2S)-2-Aminocyclohexyl)-4-oxo-5-(6-phenoxypyridin-3-yl)-4,5-dihydro-3H-1-thia-3,5,8-triazaacenaphthylene-2-carboxamide] | 6.47 | –
Cc1cc(Oc2ccccc2)ccc1N1C(=O)Nc2c(C(=O)N[C@@H]3CCC[C@@H]3N)sc3nccc1c23 (single isomer, unassigned) [Example 115, N-((1R,2S)-2-Aminocyclopentyl)-5-(*S)-(2-methyl-4-phenoxyphenyl)-4-oxo-4,5-dihydro-3H-1-thia-3,5,8-triazaacenaphthylene-2-carboxamide] | 7.57 | –
Cc1cc(OC(C)C)ncc1N1C(=O)Nc2c(C(=O)N[C@@H]3CCC[C@@H]3N)sc3nccc1c23 (single isomer, unassigned) [Example 428, N-((1R,2S)-2-Aminocyclopentyl)-5-(*S)-(6-isopropoxy-4-methylpyridin-3-yl)-4-oxo-4,5-dihydro-3H-1-thia-3,5,8-triazaacenaphthylene-2-carboxamide] | – | BTK_I_binding pIC50 [2]: 6.67
CCC(=O)N[C@H]1CCC[C@H]1NC(=O)c1sc2nccc3c2c1NC(=O)N3c1ccc(Oc2ccccc2)cc1C [Example 34, 5-(2-Methyl-4-phenoxyphenyl)-4-oxo-N-((1R,2S)-2-propionamidocyclopentyl)-4,5-dihydro-3H-1-thia-3,5,8-triazaacenaphthylene-2-carboxamide] | 6.91 | –
CC(C)c1cc(N2C(=O)Nc3c(C(=O)N[C@@H]4CCC[C@H]4N)sc4nccc2c34)ccn1 [Example 336, N-((1R,2R)-2-Aminocyclopentyl)-5-(2-isopropylpyridin-4-yl)-4-oxo-4,5-dihydro-3H-1-thia-3,5,8-triazaacenaphthylene-2-carboxamide] | – | BTK_I_binding pIC50 [2]: 6.01
Cc1cc(OC(C)C)ccc1N1C(=O)Nc2c(C(=O)N[C@@H]3CCC[C@@H]3N)sc3nccc1c23 (single isomer, unassigned) [Example 262, N-((1R,2S)-2-Aminocyclopentyl)-5-(*R)-(4-isopropoxy-2-methylphenyl)-4-oxo-4,5-dihydro-3H-1-thia-3,5,8-triazaacenaphthylene-2-carboxamide] | 6.39 | –
N[C@H]1CC[C@@H](NC(=O)c2sc3nccc4c3c2NC(=O)N4c2ccc(Oc3ccccc3)cc2)C1 (racemic) [Example 96, N-(rac-(1,3-cis)-3-Aminocyclopentyl)-4-oxo-5-(4-phenoxyphenyl)-4,5-dihydro-3H-1-thia-3,5,8-triazaacenaphthylene-2-carboxamide] | – | IC50: 77.6 nM
C=CC(=O)N[C@H]1CCC[C@H]1NC(=O)c1sc2nccc3c2c1NC(=O)N3c1ccc(Oc2ncccn2)cc1C [Example 224, N-((1R,2S)-2-acrylamidocyclopentyl)-5-(2-methyl-4-(pyrimidin-2-yloxy)phenyl)-4-oxo-4,5-dihydro-3H-1-thia-3,5,8-triazaacenaphthylene-2-carboxamide] | 7.46 | –
C=CC(=O)N[C@H]1CCC[C@H]1NC(=O)c1sc2nccc3c2c1NC(=O)N3c1ccc(O[C@@H]2CCOC2)cc1C [Example 386, N-((1R,2S)-2-Acrylamidocyclopentyl)-5-(2-methyl-4-(((R)-tetrahydrofuran-3-yl)oxy)phenyl)-4-oxo-4,5-dihydro-3H-1-thia-3,5,8-triazaacenaphthylene-2-carboxamide] | – | BTK_I_binding pIC50 [2]: 7.09
CNCC(=O)N[C@H]1CCCC[C@H]1NC(=O)c1sc2nccc3c2c1NC(=O)N3c1ccc(Oc2ccccc2)cc1C (single isomer, unassigned) [Example 125, 5-(*S)-(2-Methyl-4-phenoxyphenyl)-N-((1R,2S)-2-(2-(methylamino)acetamido)cyclohexyl)-4-oxo-4,5-dihydro-3H-1-thia-3,5,8-triazaacenaphthylene-2-carboxamide] | 7.11 | –
N[C@@H]1CC[C@H](NC(=O)c2sc3nccc4c3c2NC(=O)N4c2ccc(Oc3ccccc3)nc2)C1 (racemic) [Example 289, racemic cis N-((1RS,3RS)-3-Aminocyclopentyl)-4-oxo-5-(6-phenoxypyridin-3-yl)-4,5-dihydro-3H-1-thia-3,5,8-triazaacenaphthylene-2-carboxamide] | – | IC50: 1700 nM
Cc1cc(Oc2ccccc2)ccc1N1C(=O)Nc2c(C(=O)N[C@H]3CCC[C@@H]3NC(=O)CN)sc3nccc1c23 (single isomer, unassigned) [Example 130, N-((1S,2S)-2-(2-Aminoacetamido)cyclopentyl)-5-(*S)-(2-methyl-4-phenoxyphenyl)-4-oxo-4,5-dihydro-3H-1-thia-3,5,8-triazaacenaphthylene-2-carboxamide] | 7.17 | –
